{"source": "patent US12584131B2", "about": "“Methods of gene therapy” (OREGON HEALTH & SCIENCE UNIVERSITY, priority 2018, dated 2026)", "origin": "cited, not measured here"}
{"test_system": "CYP enzymes", "conditions": "not given"}
{"smiles": "CC(=O)Nc1ccc(O)cc1", "note": "[Acetaminophen]", "Metabolizing CYP": "CYP2E1, CYP1A2, CYP3A4, CYP2D6"}
{"smiles": "O=P1(N(CCCl)CCCl)NCCCO1", "note": "(stereo not drawn) [Cyclophosphamide]", "Metabolizing CYP": "CYP2B6, CYP2C9, CYP3A4"}
{"test_system": "CYP enzymes", "conditions": "CYP enzymes that activate the prodrug (protoxin)"}
{"smiles": "CN(C)/N=N/c1[nH]cnc1C(N)=O", "note": "[Dascarbazine]", "Metabolizing CYP": "CYP1A1, CYP1A2, CYP2E1"}
{"smiles": "CC(=O)N1CCN(c2ccc(OCC3COC(Cn4ccnc4)(c4ccc(Cl)cc4Cl)O3)cc2)CC1", "note": "(stereo not drawn) [Ketoconazole]", "Metabolizing CYP": "CYP3A4"}
{"smiles": "C/C=C1\\C[C@@H](C)[C@@](C)(O)C(=O)OC/C2=C/CN(C)CC[C@@H](OC1=O)C2=O", "note": "[Senkirkin]", "Metabolizing CYP": "CYP3A4"}
{"smiles": "Nc1c2c(nc3ccccc13)CCCC2", "note": "[Tacrine]", "Metabolizing CYP": "CYP1A2"}
{"smiles": "O=c1[nH]c(=O)n(C2CCCO2)cc1F", "note": "(stereo not drawn) [Tegafur]", "Metabolizing CYP": "CYP2A6, CYP1A2, CYP2C8"}
{"smiles": "COc1cccc(C2(O)CCCCC2CN(C)C)c1", "note": "(stereo not drawn) [Tramadol]", "Metabolizing CYP": "CYP2D6"}
{"test_system": "CYP enzymes", "conditions": "listed as acetaminophen"}
{"smiles": "CC(=O)Nc1ccc(O)cc1", "note": "[Acetaminophen]", "Metabolizing CYP": "CYP1A2, CYP2E1, and CYP3A4"}
